Reference: ChEMBL document CHEMBL1201862, “PubChem BioAssay data set” (2004)
Activity calls are given as the source filed them.

Columns and labels:
[1] = biological target: Lysosomal acid glucosylceramidase (Homo sapiens, UniProt P04062); test: Dose response cell-based high throughput screening assay to identify enhancers of beta-glucosidase activity. [Related pubchem assays: 784 ]; type: functional
X-box-binding protein 1 = X-box-binding protein 1 (Homo sapiens, UniProt P17861); type: functional, Cricetulus griseus;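 note: confirmatory dose-response counter-screen serving a CHOP assay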
[2] = off-target signal loss in HeLa-CEM21 co-culture – HeLa F-luc CTL cells, cherry-picked, counter-screen for HIV-1 Env fusion inhibitor project, dose response (AID 652040); type: functional, cell-based;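 note: potency for signal decrease marking cytotoxic or nonspecific inhibition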
HEK293 [3] = test: PMA/Ionomycin-induced IL-8 production in HEK293- NF-kB-Luc stable cells. [Related pubchem assays: 1299, 1295, 1375, 1287, 1281, 1293, 1291, 1289, 1280, 465, 1364, 1282, 1372, 1365, 1367, 1366, 1266, 1269, 1373, 1292, 1290, 1302, 1371, 1283, 1271, 1294, 1374, 1368, 1369 ]; type: functional, cell-based; conditions: Homo sapiens
[4] = cytotoxicity in HEK-293T cells, dose response, cytotoxicity control for BCR NF-kB inhibitor project, luminescence, B-cell screen hits (AID 489021); type: functional, cell-based;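 note: HEK-293T cells carrying an NF-kB luciferase reporter; cells exposed to compound for about 14 hours before viability readout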
Paired box protein Pax-8 = Paired box protein Pax-8 (Homo sapiens, UniProt Q06710); test: inhibitors of PAX8-driven TPO luciferase reporter, dose response, RMG-I cells, cherry-pick (AID 687027); type: functional, cell-based;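 note: luciferase reporter driven by Pax8 target thyroperoxidase promoter measured by SteadyGlo luminescence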
Sequence of Paired box protein Pax-8 (Q06710 whole entry): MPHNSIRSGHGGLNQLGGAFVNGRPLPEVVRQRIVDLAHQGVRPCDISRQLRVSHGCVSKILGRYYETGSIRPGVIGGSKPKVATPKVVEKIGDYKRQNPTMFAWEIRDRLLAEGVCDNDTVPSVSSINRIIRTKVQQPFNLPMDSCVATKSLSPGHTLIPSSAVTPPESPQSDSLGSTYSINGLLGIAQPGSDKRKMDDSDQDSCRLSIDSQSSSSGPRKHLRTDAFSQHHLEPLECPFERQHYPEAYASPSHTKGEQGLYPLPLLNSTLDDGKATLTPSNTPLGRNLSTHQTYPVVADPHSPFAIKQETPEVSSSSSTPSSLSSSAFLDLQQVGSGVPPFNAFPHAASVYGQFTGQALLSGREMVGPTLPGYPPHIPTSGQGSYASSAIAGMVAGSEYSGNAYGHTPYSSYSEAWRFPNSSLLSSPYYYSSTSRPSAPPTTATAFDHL

HEK293 [5] = test: Cytotoxicity assay in HEK293 cells. [Related pubchem assays (depositor defined):AID1266, AID1269, AID1270, AID1271, AID1280, AID1281, AID1282, AID1283, AID1287, AID1289, AID1290, AID1291, AID1292, AID1293, AID1294, AID1295, AID1299, AID1302, AID1364, AID1365, AID1366, AID1367, AID1369, AID1370, AID1371, AID1372, AID1373, AID1374, AID1375, AID1384 …; type: functional, cell-based; conditions: Homo sapiens
[6] = inhibitors of clade B AD8 Env fusion, dose response, cell-based, cherry-pick (AID 652062); type: functional;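 note: luciferase signal from cell-cell fusion driven by HIV-1 clade B AD8 Env; potency is for inhibitors of fusion seen as a drop in luminescence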
[7] = ZM109 Env clade C HIV-1 fusion inhibitors, dose response, HeLa effector, CEM target cells, luciferase, cherry-pick (AID 652058); type: functional, cell-based
HEK293 [8] = test: PMA/Ionomycin induced NF-kB luciferase assay in 293- NF-kB-Luc stable cells. [Related pubchem assays: 1299, 1270, 1295, 1375, 1287, 1281, 1293, 1291, 1289, 1280, 465, 1364, 1282, 1372, 1365, 1370, 1367, 1366, 1269, 1373, 1292, 1290, 1302, 1371, 1283, 1271, 1294, 1374, 1368, 1369 ]; type: functional, cell-based; conditions: Homo sapiens
[9] = biological target: Heat shock protein HSP 90-alpha (Homo sapiens, UniProt P07900); test: Luminescence-based dose response biochemical high throughput screening assay for inhibitors of the Heat Shock Protein 90 (HSP90). [Related pubchem assays: 1831 (Summary AID.), 1846 (Confirmation screen.), 1789 (Primary screen.)]
[10] = biological target: Luciferin 4-monooxygenase (Photinus pyralis, UniProt P08659); test: In vitro luciferase assay using purified luciferase. [Related pubchem assays: 1299, 1270, 1295, 1375, 1287, 1281, 1293, 1291, 1289, 1280, 465, 1364, 1282, 1372, 1365, 1370, 1367, 1366, 1266, 1373, 1292, 1290, 1302, 1371, 1283, 1271, 1294, 1374, 1368, 1369 ]
Sequence of Luciferin 4-monooxygenase (P08659 whole entry, the tested form may be a part): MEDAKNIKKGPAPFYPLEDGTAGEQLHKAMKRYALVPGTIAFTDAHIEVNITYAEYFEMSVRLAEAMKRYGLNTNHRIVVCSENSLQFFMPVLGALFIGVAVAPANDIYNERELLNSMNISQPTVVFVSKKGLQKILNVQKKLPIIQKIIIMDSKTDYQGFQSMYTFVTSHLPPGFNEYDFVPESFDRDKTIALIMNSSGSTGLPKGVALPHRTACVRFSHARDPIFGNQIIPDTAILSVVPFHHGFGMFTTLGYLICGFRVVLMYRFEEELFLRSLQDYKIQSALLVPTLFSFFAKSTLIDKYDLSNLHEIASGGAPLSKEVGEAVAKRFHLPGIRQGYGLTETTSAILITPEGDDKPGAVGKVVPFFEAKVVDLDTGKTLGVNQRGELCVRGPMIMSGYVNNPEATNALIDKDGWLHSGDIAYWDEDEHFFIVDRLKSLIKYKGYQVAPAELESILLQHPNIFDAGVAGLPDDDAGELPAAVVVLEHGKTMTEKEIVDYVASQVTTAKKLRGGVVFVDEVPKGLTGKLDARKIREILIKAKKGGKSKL

[11] = inhibitors of HIV Env-driven cell fusion, dose response, cherry-pick (AID 652057); type: functional, cell-based
HEK293 [12] = test: TNF Induced NF-kB Luciferase in 293-NF-kB-Luc Stable Cells. [Related pubchem assays: 1266, 1299, 1269, 1373, 1292, 1290, 1302, 1371, 1283, 1270, 1295, 1271, 1375, 1294, 1374, 1281, 1293, 1291, 1289, 1280, 465, 1368, 1364, 1282, 1372, 1365, 1369, 1370, 1367, 1366 ]; type: functional, cell-based; conditions: Homo sapiens
Coagulation factor XII = biological target: T1, Coagulation factor XII (Homo sapiens, UniProt P00748); test: FXIIa inhibitor potency, concentration-response, biochemical (AID 716); type: functional
T1 sequence (P00748 whole entry): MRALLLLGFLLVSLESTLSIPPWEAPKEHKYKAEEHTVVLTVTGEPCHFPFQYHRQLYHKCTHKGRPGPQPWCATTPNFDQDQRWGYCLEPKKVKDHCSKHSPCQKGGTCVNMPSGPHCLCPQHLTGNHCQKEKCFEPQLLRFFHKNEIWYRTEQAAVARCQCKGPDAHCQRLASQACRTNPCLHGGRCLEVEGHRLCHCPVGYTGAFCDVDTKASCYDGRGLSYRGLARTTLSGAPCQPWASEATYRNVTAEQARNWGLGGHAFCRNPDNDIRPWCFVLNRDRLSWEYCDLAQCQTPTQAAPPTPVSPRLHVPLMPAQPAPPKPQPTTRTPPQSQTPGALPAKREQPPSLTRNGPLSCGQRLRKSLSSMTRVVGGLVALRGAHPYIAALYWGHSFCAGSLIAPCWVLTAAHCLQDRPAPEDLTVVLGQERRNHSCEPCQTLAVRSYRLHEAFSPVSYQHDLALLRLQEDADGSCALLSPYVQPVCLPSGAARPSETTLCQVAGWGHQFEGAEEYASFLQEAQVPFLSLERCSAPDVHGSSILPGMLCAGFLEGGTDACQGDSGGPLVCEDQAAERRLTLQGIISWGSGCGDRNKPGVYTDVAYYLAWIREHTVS

[13] = biological target: FAD-linked sulfhydryl oxidase ALR (Homo sapiens, UniProt P55789); test: inhibitors of human ALR sulfhydryl oxidase, dose response, biochemical, H2O2 detection, luminescence, cherry-pick (AID 493248)
Sequence of FAD-linked sulfhydryl oxidase ALR (P55789 whole entry): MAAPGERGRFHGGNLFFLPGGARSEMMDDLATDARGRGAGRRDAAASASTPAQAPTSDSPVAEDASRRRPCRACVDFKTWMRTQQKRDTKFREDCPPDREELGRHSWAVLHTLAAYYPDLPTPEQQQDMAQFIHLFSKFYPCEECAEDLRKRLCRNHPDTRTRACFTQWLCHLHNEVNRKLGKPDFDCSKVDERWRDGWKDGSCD

Salmon testes DNA = test: DNA intercalators displacing acridine orange, dose response, artefact control for KSHV LANA DNA-binding inhibitor project, biochemical, fluorescence polarization, cherry-picked samples, set 2 (AID 504727); set-up: species or system Salmonidae
HeLa = test: HeLa cell cytotoxicity, dose response, cytotoxicity control, 24 h, cherry-picked samples (AID 504726); type: functional, cell-based; conditions: Homo sapiens;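 note: potency for cytotoxicity as loss of luminescence signal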
[14] = biological target: T2, Rac GTPase-activating protein 1 (Homo sapiens, UniProt Q9H0H5); test: MgcRacGAP GTPase-activating activity inhibitors, confirmation, biochemical, ADP Hunter fluorescence, primary and confirmatory (AID 624330); type: functional
T2 sequence (Q9H0H5 whole entry): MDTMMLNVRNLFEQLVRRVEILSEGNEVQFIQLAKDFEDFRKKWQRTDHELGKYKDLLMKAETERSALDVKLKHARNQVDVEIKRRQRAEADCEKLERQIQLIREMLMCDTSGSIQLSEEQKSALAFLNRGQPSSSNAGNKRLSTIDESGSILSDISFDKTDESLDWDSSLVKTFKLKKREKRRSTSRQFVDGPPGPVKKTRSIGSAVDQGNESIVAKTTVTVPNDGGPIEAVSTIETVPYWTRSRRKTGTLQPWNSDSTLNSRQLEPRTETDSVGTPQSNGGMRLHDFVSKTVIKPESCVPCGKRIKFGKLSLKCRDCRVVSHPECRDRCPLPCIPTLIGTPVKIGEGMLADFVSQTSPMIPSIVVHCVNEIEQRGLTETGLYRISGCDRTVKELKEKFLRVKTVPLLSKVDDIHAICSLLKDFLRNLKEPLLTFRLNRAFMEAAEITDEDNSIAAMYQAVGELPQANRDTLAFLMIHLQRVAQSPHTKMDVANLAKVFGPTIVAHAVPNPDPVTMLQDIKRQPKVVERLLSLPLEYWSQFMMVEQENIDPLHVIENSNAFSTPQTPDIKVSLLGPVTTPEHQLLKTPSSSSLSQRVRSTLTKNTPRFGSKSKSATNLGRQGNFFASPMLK

Streptococcus = test: Group A Streptococcus viability loss, dose response, counter-screen for streptokinase expression inhibitor project, luminescence, BacTiterGlo (AID 1915); type: functional, organism-based;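 note: potency for reduction of bacterial viability or growth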
Keap1/Nrf2 = Keap1/Nrf2 (Homo sapiens, UniProt Q14145); test: Keap1-Nrf2 protein-protein interaction inhibitors, dose response, biochemical, fluorescence polarization, cherry-picked samples (AID 588683)
Streptokinase A = biological target: T3, Streptokinase A (Streptococcus pyogenes serotype M1, UniProt P10520); test: S. pyogenes streptokinase expression inhibitors, potency, dose response, plasminogen activation absorbance, OD405 (AID 1914); type: functional, Streptococcus pyogenes M1 GAS;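 note: secreted streptokinase activity via plasminogen activation per viability signal from cell pellet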
T3 sequence (P10520 whole entry): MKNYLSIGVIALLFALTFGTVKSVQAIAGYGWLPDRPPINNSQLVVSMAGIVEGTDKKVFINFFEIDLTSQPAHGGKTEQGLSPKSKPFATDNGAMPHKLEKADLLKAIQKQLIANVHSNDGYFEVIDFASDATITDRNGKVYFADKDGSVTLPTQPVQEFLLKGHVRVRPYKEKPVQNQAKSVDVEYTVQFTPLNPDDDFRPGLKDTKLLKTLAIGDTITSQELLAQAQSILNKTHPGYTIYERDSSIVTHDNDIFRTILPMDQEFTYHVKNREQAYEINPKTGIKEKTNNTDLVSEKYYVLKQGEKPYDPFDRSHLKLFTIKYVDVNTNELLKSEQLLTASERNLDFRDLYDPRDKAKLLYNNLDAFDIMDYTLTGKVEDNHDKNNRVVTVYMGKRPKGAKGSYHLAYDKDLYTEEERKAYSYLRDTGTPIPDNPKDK

ORF 73 = ORF 73 (Human herpesvirus 8, UniProt O40947); test: inhibitors of C-LANA binding to LBS DNA, dose response, biochemical, fluorescence polarization, cherry-picked samples (AID 504725); set-up: species or system Human gammaherpesvirus 8;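 note: fluorescence polarization of a labeled DNA duplex reporting LANA DNA binding; potency is for inhibitors that block LANA binding to the DNA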
[15] = tested on: Streptococcus sp. 'group A'; test: growth inhibition of control SK(-) GAS strain, dose response, counter-screen for streptokinase expression inhibitor project, luminescence, kanamycin, BacTiterGlo, confirmation (AID 1900); type: functional, organism-based
[16] = Luminescence Cell-Based Dose Retest to Confirm Inhibitors of Cancer Stem Cells. [Related pubchem assays (depositor defined):AID2717, AID2721]; type: functional; conditions: Homo sapiens
[17] = biological target: Voltage-gated N-type calcium channel alpha-1B subunit/Amyloid beta A4 precursor protein-binding family A member 1 (Homo sapiens, UniProt Q00975+Q02410); test: disruptors of Mint-PDZ/N-type channel peptide interaction – biochemical, HTRF, set 2, SAR follow-up (AID 434980); type: functional
Sequence of Voltage-gated N-type calcium channel alpha-1B subunit/Amyloid beta A4 precursor protein-binding family A member 1 (Q00975 whole entry): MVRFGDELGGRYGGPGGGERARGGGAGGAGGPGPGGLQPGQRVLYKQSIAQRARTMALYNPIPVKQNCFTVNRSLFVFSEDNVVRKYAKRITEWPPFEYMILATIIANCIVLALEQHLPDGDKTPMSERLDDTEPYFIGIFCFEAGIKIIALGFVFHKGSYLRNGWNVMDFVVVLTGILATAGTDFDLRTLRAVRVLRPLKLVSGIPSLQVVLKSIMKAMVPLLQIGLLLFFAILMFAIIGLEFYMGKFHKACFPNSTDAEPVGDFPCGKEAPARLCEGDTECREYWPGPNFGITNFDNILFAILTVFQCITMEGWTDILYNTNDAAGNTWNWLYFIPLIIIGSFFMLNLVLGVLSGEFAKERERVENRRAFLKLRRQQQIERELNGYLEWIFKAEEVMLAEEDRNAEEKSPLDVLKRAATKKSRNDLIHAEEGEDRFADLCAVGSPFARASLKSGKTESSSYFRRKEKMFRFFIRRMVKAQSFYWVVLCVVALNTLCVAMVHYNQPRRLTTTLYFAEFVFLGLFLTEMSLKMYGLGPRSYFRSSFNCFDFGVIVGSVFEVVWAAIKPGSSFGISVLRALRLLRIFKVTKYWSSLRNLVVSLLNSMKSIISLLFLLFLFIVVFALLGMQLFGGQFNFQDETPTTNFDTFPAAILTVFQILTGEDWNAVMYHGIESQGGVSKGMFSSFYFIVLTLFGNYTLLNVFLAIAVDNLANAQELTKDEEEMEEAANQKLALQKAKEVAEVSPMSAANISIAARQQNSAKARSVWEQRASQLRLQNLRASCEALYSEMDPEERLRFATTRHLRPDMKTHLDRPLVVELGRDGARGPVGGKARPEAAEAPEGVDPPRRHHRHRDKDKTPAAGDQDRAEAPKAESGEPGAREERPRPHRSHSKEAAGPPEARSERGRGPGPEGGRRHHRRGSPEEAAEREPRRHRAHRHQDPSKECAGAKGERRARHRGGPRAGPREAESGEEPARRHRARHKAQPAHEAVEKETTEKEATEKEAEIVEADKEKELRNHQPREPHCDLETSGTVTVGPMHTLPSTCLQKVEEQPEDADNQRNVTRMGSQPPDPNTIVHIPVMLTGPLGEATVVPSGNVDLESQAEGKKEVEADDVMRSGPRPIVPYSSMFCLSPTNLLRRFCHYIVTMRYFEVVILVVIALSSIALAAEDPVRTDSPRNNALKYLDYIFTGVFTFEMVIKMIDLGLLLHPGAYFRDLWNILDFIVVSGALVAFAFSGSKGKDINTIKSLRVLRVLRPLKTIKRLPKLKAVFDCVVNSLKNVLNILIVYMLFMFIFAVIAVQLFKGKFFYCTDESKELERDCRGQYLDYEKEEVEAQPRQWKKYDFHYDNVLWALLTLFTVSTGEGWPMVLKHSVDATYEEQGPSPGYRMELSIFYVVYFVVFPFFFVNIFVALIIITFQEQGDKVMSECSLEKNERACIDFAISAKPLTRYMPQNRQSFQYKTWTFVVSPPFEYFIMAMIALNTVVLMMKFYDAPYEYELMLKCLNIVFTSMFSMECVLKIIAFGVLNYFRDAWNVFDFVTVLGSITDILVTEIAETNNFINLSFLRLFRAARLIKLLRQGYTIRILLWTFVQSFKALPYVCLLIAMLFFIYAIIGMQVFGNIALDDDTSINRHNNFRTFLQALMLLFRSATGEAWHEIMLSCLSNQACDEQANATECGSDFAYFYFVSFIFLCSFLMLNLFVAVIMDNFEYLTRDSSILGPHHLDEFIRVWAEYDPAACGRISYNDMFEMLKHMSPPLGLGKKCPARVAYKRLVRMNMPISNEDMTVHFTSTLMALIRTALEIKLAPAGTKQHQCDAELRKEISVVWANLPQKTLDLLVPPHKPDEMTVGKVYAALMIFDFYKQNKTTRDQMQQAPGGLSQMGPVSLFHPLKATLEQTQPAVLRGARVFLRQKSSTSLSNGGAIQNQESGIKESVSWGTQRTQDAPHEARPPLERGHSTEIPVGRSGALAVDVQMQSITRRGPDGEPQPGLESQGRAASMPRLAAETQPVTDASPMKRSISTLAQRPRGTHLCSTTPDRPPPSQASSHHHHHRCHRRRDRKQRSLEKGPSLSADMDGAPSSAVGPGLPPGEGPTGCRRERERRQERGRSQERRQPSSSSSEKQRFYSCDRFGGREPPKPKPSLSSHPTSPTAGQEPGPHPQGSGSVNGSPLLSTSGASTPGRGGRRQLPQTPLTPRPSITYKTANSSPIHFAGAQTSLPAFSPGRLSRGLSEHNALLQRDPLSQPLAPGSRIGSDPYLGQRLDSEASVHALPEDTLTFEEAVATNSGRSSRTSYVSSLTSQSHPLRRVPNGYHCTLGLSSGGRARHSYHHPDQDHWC
Sequence of Voltage-gated N-type calcium channel alpha-1B subunit/Amyloid beta A4 precursor protein-binding family A member 1 (Q02410 whole entry): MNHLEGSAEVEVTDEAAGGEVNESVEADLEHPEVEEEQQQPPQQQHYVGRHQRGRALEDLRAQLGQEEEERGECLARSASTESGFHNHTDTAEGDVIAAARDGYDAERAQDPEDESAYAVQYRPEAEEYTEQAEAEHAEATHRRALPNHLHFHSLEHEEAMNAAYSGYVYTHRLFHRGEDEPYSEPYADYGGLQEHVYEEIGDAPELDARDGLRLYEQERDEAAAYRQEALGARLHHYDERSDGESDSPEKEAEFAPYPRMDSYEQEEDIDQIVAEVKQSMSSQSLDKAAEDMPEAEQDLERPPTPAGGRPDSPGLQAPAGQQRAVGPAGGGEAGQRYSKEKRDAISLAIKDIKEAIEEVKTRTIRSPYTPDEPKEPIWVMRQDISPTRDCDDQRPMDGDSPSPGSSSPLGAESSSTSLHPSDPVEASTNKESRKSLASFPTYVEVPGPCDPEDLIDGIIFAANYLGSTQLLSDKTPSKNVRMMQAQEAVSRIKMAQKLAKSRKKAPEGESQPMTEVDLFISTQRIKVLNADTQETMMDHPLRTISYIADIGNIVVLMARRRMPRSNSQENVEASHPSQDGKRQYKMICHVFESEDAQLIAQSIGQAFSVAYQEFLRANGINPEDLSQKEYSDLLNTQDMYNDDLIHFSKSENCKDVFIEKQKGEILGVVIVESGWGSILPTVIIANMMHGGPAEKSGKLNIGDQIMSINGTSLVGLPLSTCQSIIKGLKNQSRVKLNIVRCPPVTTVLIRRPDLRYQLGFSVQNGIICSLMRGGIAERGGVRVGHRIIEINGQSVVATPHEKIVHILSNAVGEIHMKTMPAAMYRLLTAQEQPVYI

Sequence of Lysosomal acid glucosylceramidase (P04062 whole entry): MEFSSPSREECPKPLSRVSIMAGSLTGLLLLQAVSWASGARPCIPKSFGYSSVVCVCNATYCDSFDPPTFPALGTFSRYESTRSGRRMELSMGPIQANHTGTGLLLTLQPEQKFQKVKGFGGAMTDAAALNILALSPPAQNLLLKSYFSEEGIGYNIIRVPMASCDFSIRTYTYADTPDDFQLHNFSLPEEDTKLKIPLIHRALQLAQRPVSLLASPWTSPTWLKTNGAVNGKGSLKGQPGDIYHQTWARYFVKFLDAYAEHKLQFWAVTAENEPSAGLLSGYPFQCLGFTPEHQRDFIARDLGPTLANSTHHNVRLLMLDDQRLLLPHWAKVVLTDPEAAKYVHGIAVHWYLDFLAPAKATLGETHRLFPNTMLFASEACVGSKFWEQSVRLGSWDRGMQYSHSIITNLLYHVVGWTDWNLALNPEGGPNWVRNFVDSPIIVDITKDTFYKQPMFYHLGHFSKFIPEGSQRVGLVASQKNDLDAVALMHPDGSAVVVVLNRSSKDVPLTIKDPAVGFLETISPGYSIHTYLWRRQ

For `CC(=O)N1CCc2cc(S(=O)(=O)CCC(=O)N3CCN(C(=O)c4ccco4)CC3)ccc21`, the EC50 [1] was > 50 µM (not active).

In the case of `O=C1CC(c2ccccc2Cl)CC(=O)C1=CNc1ccccc1` (stereo unspecified), the “Absolute IC50 (XBP1)” value (X-box-binding protein 1) was 10 µM.

With `O=C(CN1C(=O)c2ccccc2S1(=O)=O)N1CCc2ccccc21` the AC50 [2] was 3.84 µM (active), the EC50 (HEK293 [3]) was > 8 µM (not active) and the IC50 [4] was > 80 µM (inactive). For the same compound, the AC50 (Paired box protein Pax-8) was 4.88 µM (active), the EC50 (HEK293 [5]) was > 8 µM (inactive) and the AC50 [6] was 3.89 µM (active). For the same compound, the AC50 [7] was 8.62 µM (active), the EC50 (HEK293 [8]) was 0.53 µM (active) and the IC50 [9] was 35.3 µM (not active). For the same compound, the EC50 [10] was > 8 µM (not active), the AC50 [11] was 2.89 µM (active) and the EC50 (HEK293 [12]) was > 8 µM (not active).

In the case of `CC(C)C1C(C#N)=C(N)Oc2[nH]nc(-c3cccs3)c21` (stereo unspecified), the IC50 (Coagulation factor XII) was > 50 µM (inactive) and the AC50 [13] was 6.41 µM (active).

In the case of `COc1ccc(NC(=O)c2cccc(-c3ccc(O)cc3)c2)cn1`, the AC50 (Salmon testes DNA) was 45.4 µM (active), the AC50 (HeLa) was 144 µM (active) and the IC50 [14] was 42.3 µM (active). The EC50 (Streptococcus) was > 150 µM (not active), the AC50 (Keap1/Nrf2) was 43.8 µM (active) and the EC50 (Streptokinase A) was > 150 µM (not active). For the same compound, the AC50 (ORF 73) was 34.3 µM (active), the EC50 [15] was 16.9 µM (active) and the AC50 [16] was 4.31 µM (active).

For `CC(C)CCNC(=O)c1cc(-c2ccco2)nc2ccccc12`, the IC50 [17] was > 56.8 µM (inactive).
